What was measured:
[1] = Peroxynitrite-mediated nitration of GYA peptide; format: biochemical; conditions: 2 mM GYA, 10 μM MP or SOD subunit, 1 mM CO2, pH 7.4, 37° C.
Method: Nitration efficiency, defined as the moles of nitrated GYA peptide formed per mole of peroxynitrite added, was determined at a fixed concentration of 10 μM MP or Cu,Zn SOD subunit, or 1 mM CO2 as described below. Increasing amounts of peroxynitrite were added in a sequential manner in order to determine whether nitration efficiency varied with concentration and to determine whether nitration catalysis was maintained with multiple additions (see INSET). Nitration efficiency was calculated for each peroxynitrite addition; the values shown are the average of all nine peroxynitrite additions. Absorbance changes were monitored simultaneously at 380, 430, and 460 nm.
For nitration of GYA peptide (see FIG. 6), reaction solutions contained 2 mM GYA and 10 μM of the indicated MP in 1.4 ml of 0.1 M potassium phosphate, pH 7.4 at 37° C. Comparisons with two previously characterized nitration catalysts, human Cu,Zn superoxide dismutase (hCu,Zn SOD) and carbon dioxide, were made using 10 μM of SOD subunit and 25 mM potassium bicarbonate, respectively, which was pH-adjusted to 7.4. This level of bicarbonate results in rapid saturation of the solution with carbon dioxide (˜1 mM). Solutions were placed into a rapidly stirred cuvette and nine bolus additions (50 μM×3, 100 μM×3, and 200 μM×3) of peroxynitrite were made sequentially while the absorbance was monitored. Increasing amounts of peroxynitrite were added in a sequential manner in order to determine whether nitration efficiency varied with concentration and to determine whether nitration catalysis was maintained with multiple additions (see FIG. 6 inset). Nitration efficiency was defined as the amount of nitropeptide formed per amount of peroxynitrite added and was calculated for each peroxynitrite addition; the values shown are the average of all nine peroxynitrite additions. The absorbance changes associated with nitrotyrosine peptide production were monitored simultaneously at 380, 430, and 460 nm. The extinction coefficients for nitrated GYA at pH 7.4 are 4,400 M^−1cm^−1 at 430 nm and 2,200 M^−1cm^−1 at both 380 and 460 nm. […] Wavelengths used to quantify nitrotyrosine production were chosen to minimize interference by the particular metalloporphyrin used. Experiments using HPA as a nitration target (FIG. 7) contained 8 mM HPA in either 0.1 M potassium phosphate, pH 7.4 or 0.1 M sodium borate, pH 9.1.
The relative abilities of several MPs to enhance nitration of the tripeptide GYA was compared using 10 μM MP and sequential bolus additions of 50 μM (×3), 100 μM (×3), and 200 μM (×3)peroxynitrite (FIG. 6, inset).

[2] = references (43), (5); cited from earlier work
bovine serum albumin = conditions: reference (35); cited from earlier work
[3] = system: ALS-SOD1 (G93A) transgenic mice; conditions: cited from earlier work

Cu,Zn superoxide dismutase: human Cu,Zn superoxide dismutase, previously characterized endogenous nitration catalyst
enhancement of nitration yield [1]: 2 fold | rate of reaction with superoxide [2]: 2e+09 M⁻¹ s⁻¹

iron(III)-tetra-(2,4,6,-trimethyl-3-,3-disulfonatophenyl)-porphyrin [FeTMPS]
nitration of tyrosine residues in bovine serum albumin (bovine serum albumin): inhibited

Nc1nc2ccc(OC(F)(F)F)cc2s1 [Rilutek, riluzole]
extension of lifespan [3]: about 7 days

From patent publication US6372727B1, “Metalloporphyrin treatment of neurologic disease” (UAB Research Foundation, priority 1999, dated 2002)
